Assay results: patent US20170066759A1, “AROMATIC 5-MEMBERED HETEROCYCLIC DERIVATIVE HAVING TRPV4-INHIBITING ACTIVITY” (Shionogi & Co., Ltd., priority 2012, published 2017)

Target: T1, human TRPV4 (hTRPV4/CHO cells) (Homo sapiens, UniProt Q9HBA0)
T1 construct: expressed in transfected cells; host or cells: CHO-K1
Experiment: Test Example 1: TRPV4 inhibitory activity (IC50 value), 4α-PDD stimulation, Fluo4 calcium fluorescence (FLIPR TETRA)
Assay type: cell-based
Conditions: Test Example 1, 4α-PDD stimulation, read-out: Test 1 IC50

T1 sequence (Q9HBA0 whole entry): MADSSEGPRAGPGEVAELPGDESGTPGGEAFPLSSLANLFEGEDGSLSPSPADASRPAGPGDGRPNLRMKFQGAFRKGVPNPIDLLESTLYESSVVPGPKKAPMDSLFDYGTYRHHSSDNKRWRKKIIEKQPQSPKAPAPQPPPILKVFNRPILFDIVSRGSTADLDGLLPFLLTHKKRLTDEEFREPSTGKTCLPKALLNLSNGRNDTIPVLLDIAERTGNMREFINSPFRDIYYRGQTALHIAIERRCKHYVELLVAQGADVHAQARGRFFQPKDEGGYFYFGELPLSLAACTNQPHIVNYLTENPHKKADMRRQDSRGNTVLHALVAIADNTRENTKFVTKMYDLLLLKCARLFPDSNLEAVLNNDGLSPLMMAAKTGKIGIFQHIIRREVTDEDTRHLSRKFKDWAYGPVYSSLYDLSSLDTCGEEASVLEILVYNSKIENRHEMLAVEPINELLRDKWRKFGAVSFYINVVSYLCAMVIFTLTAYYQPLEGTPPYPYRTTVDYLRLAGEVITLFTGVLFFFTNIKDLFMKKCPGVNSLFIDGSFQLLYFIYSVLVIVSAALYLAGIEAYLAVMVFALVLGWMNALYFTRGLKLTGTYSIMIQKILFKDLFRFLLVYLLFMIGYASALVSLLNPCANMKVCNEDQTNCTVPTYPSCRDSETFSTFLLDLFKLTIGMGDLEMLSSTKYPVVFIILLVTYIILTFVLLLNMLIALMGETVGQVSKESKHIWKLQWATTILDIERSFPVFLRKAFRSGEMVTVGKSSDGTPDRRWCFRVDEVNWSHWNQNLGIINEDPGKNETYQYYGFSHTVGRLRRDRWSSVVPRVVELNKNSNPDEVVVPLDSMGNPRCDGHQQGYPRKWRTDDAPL

SMILES	IC50
Cc1nc(CO)sc1-c1csc(NC(=O)C2CN(S(=O)(=O)c3ccccc3C(F)(F)F)C2)n1 [Compound I-305]	100 to 1000 nM
Cc1nc(CO)sc1-c1csc(NC(=O)C2CN(S(=O)(=O)c3ccc(C(F)(F)F)cc3)C2)n1 [Compound I-306]	< 100 nM
Cc1nc(CO)sc1-c1csc(NC(=O)C2CN(c3ccc(C(F)(F)F)nc3)C2)n1 [Compound I-309]	< 100 nM
Cc1nc(CO)sc1-c1csc(NC(=O)[C@@H]2C[C@@H](c3ccccc3)CN2C(=O)C(C)C)n1 [Compound I-312]	100 to 1000 nM
CCOC(=O)N1C[C@H](c2ccccc2)C[C@H]1C(=O)Nc1nc(-c2sc(CO)nc2C)cs1 [Compound I-313]	< 100 nM
Cc1nc(CO)sc1-c1csc(NC(=O)[C@@H]2C[C@@H](c3ccccc3)CN2C(=O)OCC(F)(F)F)n1 [Compound I-314]	< 100 nM
Cc1nc(CO)sc1-c1csc(NC(=O)[C@@H]2C[C@@H](c3ccccc3)CN2C(=O)OC(C)C)n1 [Compound I-315]	< 100 nM
Cc1nc(CO)sc1-c1csc(NC(=O)[C@@H]2C[C@@H](c3ccccc3)CN2S(=O)(=O)C(C)C)n1 [Compound I-316]	< 100 nM
Cc1nc(CO)sc1-c1csc(NC(=O)[C@H]2C[C@@H](N(C)Cc3ccc(C(F)(F)F)cc3)C2)n1 [Compound I-318]	< 100 nM
Cc1nc(CO)sc1-c1csc(NC(=O)[C@H]2C[C@@H](NCc3ccc(C(F)(F)F)cc3)C2)n1 [Compound I-319]	100 to 1000 nM
O=C(Cc1ccc(S(=O)(=O)C(F)(F)F)cc1)Nc1nc(-c2sc(CO)nc2/C=C/CO)cs1 [Compound I-320]	< 100 nM
NC(=O)c1nc(CO)c(-c2csc(NC(=O)C3CN(Cc4ccccc4C(F)(F)F)C3)n2)s1 [Compound I-322]	100 to 1000 nM
COC(=O)N1C[C@H](c2ccccc2)C[C@H]1C(=O)Nc1nc(-c2sc(CO)nc2C)cs1 [Compound I-323]	< 100 nM
NC(=O)c1nc(CO)c(-c2csc(NC(=O)C3CN(Cc4cccc(C(F)(F)F)c4)C3)n2)s1 [Compound I-324]	100 to 1000 nM
NC(=O)c1nc(CO)c(-c2csc(NC(=O)C3CN(Cc4ccc(C(F)(F)F)cc4)C3)n2)s1 [Compound I-325]	100 to 1000 nM
Cc1nc(C)c(-c2csc(NC(=O)[C@H]3C[C@H](Cl)C3)n2)s1 [Compound I-326]	< 100 nM
O=C(Nc1nc(-c2sc(CO)nc2CO)cs1)C1CN(c2ccccc2C(F)(F)F)C1 [Compound I-327]	< 100 nM
Cc1nc(CO)sc1-c1csc(NC(=O)C2CN(C(=O)OC(C)(C)C(F)(F)F)C2)n1 [Compound I-329]	< 100 nM
Cc1nc(CO)sc1-c1csc(NC(=O)[C@H]2C[C@@H](OCc3ccc(Cl)cc3)C2)n1 [Compound I-331]	< 100 nM
O=C(Nc1nc(-c2sc(CO)nc2CO)cs1)[C@@H]1C[C@@H](c2ccccc2)CN1C(=O)OCC(F)(F)F [Compound I-336]	100 to 1000 nM
O=C(Nc1nc(-c2sc(CO)nc2CO)cs1)[C@@H]1C[C@@H](c2ccccc2)CN1S(=O)(=O)C(F)(F)F [Compound I-338]	100 to 1000 nM

The next lines start with the values.

IC50	SMILES
100 to 1000 nM	O=C(Nc1nc(-c2sc(CO)nc2CO)cs1)C1CN(c2ccc(C(F)(F)F)cn2)C1 [Compound I-303]
100 to 1000 nM	Cc1nc(CO)sc1-c1csc(NC(=O)[C@H]2C[C@@H](N(C)CC(F)(F)F)C2)n1 [Compound I-304]
< 100 nM	Cc1nc(CO)sc1-c1csc(NC(=O)C2CN(c3ncc(C(F)(F)F)cn3)C2)n1 [Compound I-307]
100 to 1000 nM	Cc1nc(CO)sc1-c1csc(NC(=O)C2CN(C(=O)OCC(F)(F)F)C2)n1 [Compound I-308]
< 100 nM	Cc1nc(CO)sc1-c1csc(NC(=O)C2CN(c3cccnc3C(F)(F)F)C2)n1 [Compound I-310]
< 100 nM	Cc1nc(CO)sc1-c1csc(NC(=O)C2CN(c3cccnc3Br)C2)n1 [Compound I-311]
1000 to 8000 nM	O=C(Nc1nc(-c2sc(CO)nc2CO)cs1)[C@H]1C[C@@H](NCc2ccc(C(F)(F)F)cc2)C1 [Compound I-317]
< 100 nM	Cc1nc(CO)sc1-c1csc(NC(=O)[C@@H]2C[C@@H](c3ccccc3)CN2C(=O)C(C)(C)F)n1 [Compound I-328]
< 100 nM	O=C(Nc1nc(-c2sc(CO)nc2CO)cs1)C1CC(Oc2ccc(C(F)(F)F)cc2)C1 (stereo not drawn) [Compound I-330]
100 to 1000 nM	O=C(Nc1nc(-c2sc(CO)nc2CO)cs1)[C@H]1C[C@@H](OCc2ccc(Cl)cc2)C1 [Compound I-332]
1000 to 8000 nM	Cc1nc(CO)sc1-c1csc(NC(=O)C2CC(OCC3CC3)C2)n1 (stereo not drawn) [Compound I-333]
< 100 nM	N#CCc1nc(CO)sc1-c1csc(NC(=O)C2CN(c3ccc(C(F)(F)F)cc3)C2)n1 [Compound I-334]
< 100 nM	Cc1nc(CO)sc1-c1csc(NC(=O)[C@H]2C[C@@H](OCc3ccc(C(F)(F)F)cc3)C2)n1 [Compound I-335]
1000 to 8000 nM	O=C(Nc1nc(-c2sc(CO)nc2CO)cs1)[C@@H]1C[C@@H](c2ccccc2)CN1CC(F)(F)F [Compound I-337]
1000 to 8000 nM	O=C(Nc1nc(-c2sc(CO)nc2CO)cs1)C1CC(OCC2CC2)C1 (stereo not drawn) [Compound I-339]
